Key:
Test in all cases: Bliss excess, mean over the matrix (fraction); higher = more synergy
[1] = tested on: T84 (Colorectal Carcinoma)
In short: (§1)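 Cell lines in DMEM/F12 or RPMI with 10% FBS were plated in 1536-well plates, held 24 hours at 37°C, 5% CO2, then given two-drug dose matrices for 72 hours (DMSO typically 0.2%). Viability was read by CellTiter-Glo 2.0 luminescence and scaled as inhibition from 0 (vehicle wells) to 1 (blank wells). Combination Emax is the second-highest inhibition in the matrix; Bliss excess is observed combination effect minus expected EA + EB − EA·EB, EA and EB being single-agent effects.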

[2] = tested on: KALS-1 (Glioblastoma)
In short: as §1

[3] = tested on: NCI-H1876 (Small Cell Lung Carcinoma)
In short: as §1

[4] = tested on: MDA-MB-415 (Breast Carcinoma)
In short: as §1

[5] = tested on: DBTRG-05MG (Glioblastoma)
In short: as §1

[6] = tested on: SAT (Head and Neck Carcinoma)
In short: as §1

[7] = tested on: WM35 (Melanoma)
In short: as §1

[8] = tested on: IA-LM (Non-Small Cell Lung Carcinoma)
In short: as §1

[9] = tested on: PA-TU-8988T (Pancreatic Carcinoma)
In short: as §1

[10] = tested on: MONO-MAC-6 (Acute Myeloid Leukemia)
In short: as §1

[11] = tested on: SNU-423 (Hepatocellular Carcinoma)
In short: as §1

[12] = tested on: NCI-H1341 (Small Cell Lung Carcinoma)
In short: as §1

[13] = tested on: PL4 (Pancreatic Carcinoma)
In short: as §1

[14] = tested on: BHT-101 (Thyroid Gland Carcinoma)
In short: as §1

[15] = tested on: OVCAR-3 (Ovarian Carcinoma)
In short: as §1

[16] = tested on: C-33-A (Cervical Carcinoma)
In short: as §1

[17] = tested on: NCI-H3118 (Head and Neck Carcinoma)
In short: as §1

[18] = tested on: SK-CO-1 (Colorectal Carcinoma)
In short: as §1

[19] = tested on: HT-1080 (Other Solid Carcinomas)
In short: as §1

[20] = tested on: KP-4 (Pancreatic Carcinoma)
In short: as §1

Structure (SMILES) | Bliss excess [1] | Bliss excess [2] | Bliss excess [3] | Bliss excess [4] | Bliss excess [5] | Bliss excess [6] | Bliss excess [7] | Bliss excess [8] | Bliss excess [9] | Bliss excess [10] | Bliss excess [11] | Bliss excess [12] | Bliss excess [13] | Bliss excess [14] | Bliss excess [15] | Bliss excess [16] | Bliss excess [17] | Bliss excess [18] | Bliss excess [19] | Bliss excess [20]
CC1(C)CCC(CN2CCN(c3ccc(C(=O)NS(=O)(=O)c4ccc(NCC5CCOCC5)c([N+](=O)[O-])c4)c(Oc4cnc5[nH]ccc5c4)c3)CC2)=C(c2ccc(Cl)cc2)C1 [Venetoclax] + C[C@@H](Nc1cc(F)cc(F)c1)c1cc(C(=O)N(C)C)cc2c(=O)cc(N3CCOCC3)oc12 [AZD8186] (first compound max 1 µM, 7x7, partner max 3 µM) | -0.0284 | 0.0015 | -0.0181 | -0.0128 | -0.0251 | 0.0036 | -0.0332 | -0.0416 | 0.0383 | 0.0531 | 0.0364 | 0.0918 | -0.049 | 0.0031 | -0.0062 | -0.0523 | -0.0439 | -0.0782 | -0.0311 | -0.0205
CC1(C)CCC(CN2CCN(c3ccc(C(=O)NS(=O)(=O)c4ccc(NCC5CCOCC5)c([N+](=O)[O-])c4)c(Oc4cnc5[nH]ccc5c4)c3)CC2)=C(c2ccc(Cl)cc2)C1 [Venetoclax] + Cc1cc2ncnn2cc1Nc1ncc2c(n1)n(C1CCOCC1)c(=O)n2C [AZD7648] (first compound max 1 µM, 7x7, partner max 10 µM) | -0.0267 | -0.0904 | 0.0111 | -0.117 | -0.0224 | -0.0171 | -0.0209 | 0.0086 | -0.0251 | -0.025 | -0.111 | 0.0752 | -0.0297 | -0.0011 | -0.0259 | -0.0032 | -0.0369 | -0.018 | -0.0487 | -0.061
CC1(C)CCC(CN2CCN(c3ccc(C(=O)NS(=O)(=O)c4ccc(NCC5CCOCC5)c([N+](=O)[O-])c4)c(Oc4cnc5[nH]ccc5c4)c3)CC2)=C(c2ccc(Cl)cc2)C1 [Venetoclax] + Cn1cnc2c(F)c(Nc3ccc(Br)cc3Cl)c(C(=O)NOCCO)cc21 [Selumetinib] (first compound max 1 µM, 7x7, partner max 3 µM) | -0.061 | -0.0415 | -0.0335 | -0.0498 | 0.0064 | 0.0334 | 0.0543 | -0.0248 | -0.021 | -0.0192 | -0.11 | 0.0847 | -0.0236 | -0.0959 | -0.017 | -0.0033 | -0.0276 | 0.001 | -0.0351 | -0.0521
